Test results reported in patent publication US20210137903A1, “ANTI-ANDROGENS FOR THE TREATMENT OF PROSTRATE CANCER” (priority 2019, published 2021).

Legend:
[1] = Example 1 relative bioavailability study: safety evaluations; format: in vivo, human
Experimental: Safety: Safety was evaluated throughout the study by means of adverse events (AEs), laboratory safety (hematology and serum chemistry), electrocardiograms (ECGs), vital signs (blood pressure, pulse, respiratory rate, and body temperature), and physical examinations (see the Time and Events Schedule in FIG. 1 for details).
Safety: Baseline for all laboratory evaluations, 12-lead ECG measurements, and vital signs were defined as the last evaluation done before the first study drug administration. Safety was evaluated by examining the incidence and type of adverse events, and changes in clinical laboratory test values, physical examination results, 12-lead ECGs, and vital sign measurements from the screening phase through study completion, including the washout intervals and the End-of-Study visit.
All subjects who were randomly assigned to treatment and received at least one dose of the study drug were included in the safety analysis.
The verbatim terms used in the CRF by investigators to identify adverse events was coded using the Medical Dictionary for Regulatory Activities (MedDRA). All reported adverse events with onset during the treatment phase (ie, treatment-emergent adverse events, and adverse events that have worsened since baseline) were included in the analysis. For each adverse event, the percentage of subjects who experience at least 1 occurrence of the given event was summarized by treatment group.
The severity assessment for an adverse event/serious adverse event was completed using the NCI-CTCAE Version 5.0. Any adverse event/serious adverse event not listed in the NCI-CTCAE was graded by the investigator using the standard grades as follows: […]

[2] = Single-dose 14C-apalutamide absolute bioavailability and microtracer study; design: species or system human; conditions: in vivo
[3] = Biopharmaceutics Classification System classification; format: physicochemical; conditions: highly permeable and poorly soluble
From the text: Apalutamide is a Biopharmaceutics Classification System Class II drug (highly permeable and poorly soluble). The commercialized formulation is a spray dried powder of amorphous apalutamide.

[4] = Dosing accuracy, chemical stability and appearance of apalutamide tablets dispersed in applesauce (UHPLC); format: physicochemical
Experimental: The tablet core weight was 700 mg. […] Appearance was determined visually. Dosing accuracy and chemical stability (the concentration and impurities) were measured using the following UHPLC Procedure. The reagents used in the UHPLC procedure were demineralized water, ammonium acetate, trifluoroacetic acid and acetonitrile. Mobile Phase A was a 10 mM NH4Ac+01% TFA/Acetonitrile (90/10 v/v) solution prepared as follows. 0.77 g Ammonium acetate (NH4Ac) was transferred into a 1000 mL volumetric flask. […] Mobile Phase B was acetonitrile. Sample solutions were prepared as described in the individual examples which follow hereinafter. [table] For chemical stability (chromatographic characteristics) the identity of impurities were assigned based on comparison of their Relative Retention Times (RRT) to known retention times, or retention times determined using reference solutions. […] The mixture was gently mixed in the container with a spatula for 10 seconds and the time recorded. The hold time of the sample was calculated against the moment the tablets were added to the mixture. After 15 minutes, the mixture was again gently mixed with a spatula for 10 seconds and the time recorded. After an additional 15 minutes, the mixture was again gently mixed with a spatula for until a uniform mixture was formed (at least 10 seconds) and the time recorded. […]

[5] = Example 1 relative bioavailability study: pharmacokinetics, whole tablets vs mixture in applesauce; format: in vivo, human; conditions: n=10
Experimental: This was a randomized, open-label, balanced, single dose, two-treatment, two-period, two-sequence, crossover relative bioavailability study.
Healthy male subjects were randomly assigned to 1 of 2 treatment sequences by following the randomization scheme as given below.
All study drug were taken in the morning on Day 1 of each treatment period. […] For Treatment B, the study drug-applesauce mixture was prepared by a pharmaceutical technician or pharmacist. An additional 50 mL of water for either treatments was allowed if necessary. Study drug of Treatment B was be ingested within 5 minutes. Treatment A was be swallowed whole and not chewed, divided, dissolved, or crushed.
Additional PK parameters could be included if deemed appropriate.
Pharmacokinetic analysis was performed by or under the responsibility of the sponsor.
Pharmacokinetic and statistical analysis were done using Phoenix™ WinNonlin® (Tripos L.P.). Noncompartmental analysis was applied for the pharmacokinetic analysis. Furthermore, Microsoft Excel® (Microsoft, Redmond, Wash., United States), and SAS (SAS Institute Inc., Cary, N.C., US) were used.
If one of the PK parameters could not be determined for a given subject in 1 or more periods, the subject's data was not included in the statistical analysis of that particular PK parameter. The analysis was performed on log-transformed PK parameters.
A mixed effect model that includes treatment, period, and treatment sequence as fixed effects, and subject as a random effect, was used to estimate the least squares means and intrasubject variance. Using these estimated least squares means and intrasubject variance, the point estimate and 90% CIs for the difference in means on a log scale between test and reference were constructed. The limits of the CIs was retransformed using antilogarithms to obtain 90% CIs for the geometric mean ratios of Cmax and AUC0-168 h of the test to reference formulation. A similar analysis was conducted for AUC0-72 h for supplemental purpose.

Structure (SMILES): CNC(=O)c1ccc(N2C(=S)N(c3cnc(C#N)c(C(F)(F)F)c3)C(=O)C23CCC3)cc1F [apalutamide, 4-[7-(6-cyano-5-trifluoromethylpyridin-3-yl)-8-oxo-6-thioxo-5,7-diazaspiro[3.4]oct-5-yl]-2-fluoro-N-methylbenzamide]
- deaths or serious TEAEs ([1]; in vivo): no deaths or serious TEAEs
- overall safety and tolerability of 240 mg as whole tablets and as dispersed tablets in applesauce ([1]; in vivo): safe and generally well tolerated
- subjects with QTcB or QTcF increase of >60 ms from baseline ([1]; in vivo): No subjects
- subjects with QTcB or QTcF values of >480 ms ([1]; in vivo): No subjects
- AE leading to treatment discontinuation ([1]; n (%)): 1 (8.3%)
- AE leading to treatment discontinuation: >=Grade 3 ([1]; n (%)): 0
- AE leading to treatment discontinuation: Drug-related to Treatment A ([1]; n (%)): 0
- AE leading to treatment discontinuation: Drug-related to Treatment B ([1]; n (%)): 1 (8.3%)
- AE leading to treatment discontinuation: Grade 1 ([1]; n (%)): 1 (8.3%)
- AE leading to treatment discontinuation: Grade 2 ([1]; n (%)): 0
- Serious TEAE: >=Grade 3 ([1]; n (%)): 0
- Serious TEAE: Drug-related to Treatment A ([1]; n (%)): 0
- Serious TEAE: Drug-related to Treatment B ([1]; n (%)): 0
- Serious TEAE: Grade 1 ([1]; n (%)): 0
- Serious TEAE: Grade 2 ([1]; n (%)): 0
- Serious Treatment Emergent Adverse Events ([1]; n (%)): 0
- Treatment Emergent Adverse Events: Drug-related to Treatment A ([1]; n (%)): 4 (33.3%)
- Treatment Emergent Adverse Events: Drug-related to Treatment B ([1]; n (%)): 4 (33.3%)
- subjects with TEAE gynecomastia ([1]; n (%)): 3 (25.0%)
- subjects with sexual side effects ([1]; n (%)): 3 (25.0%)
- Treatment Emergent Adverse Events, subjects ([1]; n (%) of subjects treated): 5 (41.7%)
- Treatment Emergent Adverse Events: >=Grade 3 ([1]; worst grade, n (%)): 0
- Treatment Emergent Adverse Events: Grade 1 ([1]; worst grade, n (%)): 4 (33.3%)
- Treatment Emergent Adverse Events: Grade 2 ([1]; worst grade, n (%)): 1 (8.3%)
- 14C-radioactivity excreted via feces (arithmetic mean) [2]: 24.3%
- total 14C-radioactivity excreted in urine (arithmetic mean) [2]: 64.2%
- total administered 14C-radioactive dose recovered [2]: 88.9%
- Biopharmaceutics Classification System class [3]: Class II
- time the drug was found to be stable in applesauce [4]: at least 6 hours
- AUC0-72h Intra-subject CV(%) [5]: 3.7%
- AUC0-168h Intra-subject CV(%) [5]: 2.7%
- Cmax Intra-subject CV(%) [5]: 13.8%
